Reference: ChEMBL document CHEMBL3244014, “Selenium-sulfur analogues. 1. Synthesis and biochemical evaluation of selenotetramisole” (J Med Chem, 1978)
Activity calls are given as the source filed them. The rule behind the calls is not given here.

Legend:
[1] = target: T1, Alkaline phosphatase, tissue-nonspecific isozyme (Homo sapiens) (UniProt P05186); assay: Inhibition of human serum containing 10% bone alkaline phosphatase using p-nitrophenyl phosphate as substrate at 8.7 x 10^-5 M up to 35 mins by spectrophotometry
T1 sequence (whole entry): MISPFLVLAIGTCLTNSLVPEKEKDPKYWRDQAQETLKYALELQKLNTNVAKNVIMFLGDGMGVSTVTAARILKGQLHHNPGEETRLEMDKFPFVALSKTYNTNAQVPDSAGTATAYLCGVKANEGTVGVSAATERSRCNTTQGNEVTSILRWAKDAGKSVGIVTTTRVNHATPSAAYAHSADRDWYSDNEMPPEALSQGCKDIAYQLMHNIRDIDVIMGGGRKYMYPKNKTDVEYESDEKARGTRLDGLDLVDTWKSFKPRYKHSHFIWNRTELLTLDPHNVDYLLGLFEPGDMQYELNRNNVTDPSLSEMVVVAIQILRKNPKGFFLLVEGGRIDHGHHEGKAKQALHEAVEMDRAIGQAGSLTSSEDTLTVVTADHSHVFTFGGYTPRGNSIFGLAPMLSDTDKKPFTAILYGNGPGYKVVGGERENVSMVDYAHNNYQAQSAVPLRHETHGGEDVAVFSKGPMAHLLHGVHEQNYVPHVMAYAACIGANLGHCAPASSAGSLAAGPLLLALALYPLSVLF

[2] = target: T1, Alkaline phosphatase, tissue-nonspecific isozyme (Homo sapiens); assay: Inhibition of human serum containing 64% liver alkaline phosphatase using p-nitrophenyl phosphate as substrate at 8.7 x 10^-5 M up to 35 mins by spectrophotometry
[3] = target: Intestinal-type alkaline phosphatase (Bos taurus) (UniProt P19111); assay: Inhibition of calf intestine alkaline phosphatase using p-nitrophenyl phosphate as substrate at 8.7 x 10^-5 M up to 35 mins by spectrophotometry
[4] = target: Alkaline phosphatase, placental type (Homo sapiens) (UniProt P05187); assay: Inhibition of human placenta alkaline phosphatase using p-nitrophenyl phosphate as substrate at 8.7 x 10^-5 M up to 35 mins by spectrophotometry
[5] = target: T1, Alkaline phosphatase, tissue-nonspecific isozyme (Homo sapiens); assay: Inhibition of human serum containing 60% liver alkaline phosphatase using p-nitrophenyl phosphate as substrate at 8.7 x 10^-5 M up to 35 mins by spectrophotometry
[6] = species: Bos taurus; assay: Inhibition of bovine placenta alkaline phosphatase using p-nitrophenyl phosphate as substrate at 8.7 x 10^-5 M up to 35 mins by spectrophotometry
[7] = target: T1, Alkaline phosphatase, tissue-nonspecific isozyme (Homo sapiens); assay: Inhibition of human serum containing 14% bone alkaline phosphatase using p-nitrophenyl phosphate as substrate at 8.7 x 10^-5 M up to 35 mins by spectrophotometry
[8] = target: T1, Alkaline phosphatase, tissue-nonspecific isozyme (Homo sapiens); assay: Inhibition of human serum containing 92% liver alkaline phosphatase using p-nitrophenyl phosphate as substrate at 8.7 x 10^-5 M up to 35 mins by spectrophotometry
[9] = target: T1, Alkaline phosphatase, tissue-nonspecific isozyme (Homo sapiens); assay: Inhibition of human serum containing 40% bone alkaline phosphatase using p-nitrophenyl phosphate as substrate at 8.7 x 10^-5 M up to 35 mins by spectrophotometry
[10] = target: T1, Alkaline phosphatase, tissue-nonspecific isozyme (Homo sapiens); assay: Inhibition of human serum containing 86% liver alkaline phosphatase using p-nitrophenyl phosphate as substrate at 8.7 x 10^-5 M up to 35 mins by spectrophotometry
[11] = target: Intestinal-type alkaline phosphatase (Homo sapiens) (UniProt P09923); assay: Inhibition of human serum containing 26% intestine alkaline phosphatase using p-nitrophenyl phosphate as substrate at 8.7 x 10^-5 M up to 35 mins by spectrophotometry
[12] = target: T1, Alkaline phosphatase, tissue-nonspecific isozyme (Homo sapiens); assay: Inhibition of human serum containing 8% liver alkaline phosphatase using p-nitrophenyl phosphate as substrate at 8.7 x 10^-5 M up to 35 mins by spectrophotometry
[13] = target: T2, Alkaline phosphatase, tissue-nonspecific isozyme (Bos taurus) (UniProt P09487); assay: Inhibition of bovine liver alkaline phosphatase using p-nitrophenyl phosphate as substrate at 8.7 x 10^-5 M up to 35 mins by spectrophotometry
T2 sequence (whole entry): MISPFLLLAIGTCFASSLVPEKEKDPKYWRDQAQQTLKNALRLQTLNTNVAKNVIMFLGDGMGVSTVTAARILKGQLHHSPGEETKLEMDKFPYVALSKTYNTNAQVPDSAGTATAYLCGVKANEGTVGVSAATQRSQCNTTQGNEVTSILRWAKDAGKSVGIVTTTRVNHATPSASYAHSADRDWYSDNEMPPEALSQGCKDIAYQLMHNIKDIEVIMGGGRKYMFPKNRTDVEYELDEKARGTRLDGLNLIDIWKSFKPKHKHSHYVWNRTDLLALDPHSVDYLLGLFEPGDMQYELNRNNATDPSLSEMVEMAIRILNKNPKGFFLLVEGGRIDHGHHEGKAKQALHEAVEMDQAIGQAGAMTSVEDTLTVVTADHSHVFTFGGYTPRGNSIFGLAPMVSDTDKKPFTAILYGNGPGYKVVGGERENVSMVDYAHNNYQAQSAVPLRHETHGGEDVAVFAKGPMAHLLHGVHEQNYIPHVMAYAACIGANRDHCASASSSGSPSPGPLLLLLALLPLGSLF

Chain of Intestinal-type alkaline phosphatase (Bos taurus) (P19111 20-506 limits assumed): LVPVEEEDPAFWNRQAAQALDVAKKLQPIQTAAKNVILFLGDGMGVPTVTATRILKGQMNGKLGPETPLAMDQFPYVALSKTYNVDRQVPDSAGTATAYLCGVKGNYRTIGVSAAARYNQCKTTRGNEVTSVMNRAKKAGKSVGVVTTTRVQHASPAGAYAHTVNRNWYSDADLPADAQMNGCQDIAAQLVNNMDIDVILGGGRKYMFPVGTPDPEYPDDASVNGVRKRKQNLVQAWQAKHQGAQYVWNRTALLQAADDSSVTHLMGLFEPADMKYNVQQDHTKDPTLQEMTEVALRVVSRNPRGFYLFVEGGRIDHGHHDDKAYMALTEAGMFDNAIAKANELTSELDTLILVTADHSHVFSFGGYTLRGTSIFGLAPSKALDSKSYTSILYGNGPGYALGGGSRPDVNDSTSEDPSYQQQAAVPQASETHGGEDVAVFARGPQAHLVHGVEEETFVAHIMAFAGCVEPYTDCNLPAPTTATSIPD
Chain of Alkaline phosphatase, placental type (Homo sapiens) (P05187 whole entry): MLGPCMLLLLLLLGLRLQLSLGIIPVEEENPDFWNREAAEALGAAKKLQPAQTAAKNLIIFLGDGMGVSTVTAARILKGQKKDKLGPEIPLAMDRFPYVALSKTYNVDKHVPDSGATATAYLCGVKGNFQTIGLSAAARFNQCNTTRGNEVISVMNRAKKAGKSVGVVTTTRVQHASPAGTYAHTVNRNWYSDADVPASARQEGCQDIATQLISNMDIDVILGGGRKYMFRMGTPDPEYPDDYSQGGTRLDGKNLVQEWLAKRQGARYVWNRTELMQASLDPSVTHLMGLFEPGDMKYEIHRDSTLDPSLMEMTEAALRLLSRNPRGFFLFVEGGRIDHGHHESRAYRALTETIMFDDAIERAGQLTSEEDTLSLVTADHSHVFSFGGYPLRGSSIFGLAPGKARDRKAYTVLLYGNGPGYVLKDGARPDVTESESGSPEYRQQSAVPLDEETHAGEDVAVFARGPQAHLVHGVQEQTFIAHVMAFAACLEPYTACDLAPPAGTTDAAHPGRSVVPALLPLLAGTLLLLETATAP
Chain of Intestinal-type alkaline phosphatase (Homo sapiens) (P09923 20-503 limits assumed): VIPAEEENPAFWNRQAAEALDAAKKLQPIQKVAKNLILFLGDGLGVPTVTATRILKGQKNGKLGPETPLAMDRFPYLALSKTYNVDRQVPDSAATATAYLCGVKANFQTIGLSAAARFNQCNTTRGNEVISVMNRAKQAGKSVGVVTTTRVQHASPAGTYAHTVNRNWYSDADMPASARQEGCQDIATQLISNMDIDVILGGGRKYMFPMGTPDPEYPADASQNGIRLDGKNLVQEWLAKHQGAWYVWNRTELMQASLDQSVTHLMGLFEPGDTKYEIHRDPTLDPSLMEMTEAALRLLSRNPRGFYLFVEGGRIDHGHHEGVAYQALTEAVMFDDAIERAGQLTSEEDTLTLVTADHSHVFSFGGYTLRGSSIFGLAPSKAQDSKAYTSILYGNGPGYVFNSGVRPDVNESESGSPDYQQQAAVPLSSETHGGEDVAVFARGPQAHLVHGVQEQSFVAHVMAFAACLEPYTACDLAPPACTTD

| SMILES | inhibition [1] | inhibition [2] | inhibition [3] | inhibition [4] | inhibition [5] | inhibition [6] | inhibition [7] | inhibition [8] | inhibition [9] | inhibition [10] | inhibition [11] | inhibition [12] | inhibition [13] |
| --- | --- | --- | --- | --- | --- | --- | --- | --- | --- | --- | --- | --- | --- |
| c1ccc([C@@H]2CN3CC[Se]C3=N2)cc1 | inactive | inactive | inactive | inactive | inactive | inactive | inactive | inactive | inactive | inactive | inactive | inactive | inactive |
| c1ccc([C@H]2CN3CC[Se]C3=N2)cc1 | 70% | 70% | 10% | 0% | 78% | 78% | 63% | 80% | 78% | 63% | 70% | 80% | 76% |
| c1ccc([C@@H]2CN3CCSC3=N2)cc1 (stereo in doubt; (+)) | inactive | inactive | inactive | inactive | inactive | inactive | inactive | inactive | inactive | inactive | inactive | inactive | inactive |
| c1ccc([C@@H]2CN3CCSC3=N2)cc1 (stereo in doubt; (-)) | 65% | 65% | 10% | 0% | 71% | 75% | 56% | 76% | 71% | 56% | 65% | 76% | 67% |
